In one data set the target is T1, cyclophilin A (Cyp A) (Homo sapiens, UniProt P62937).
T1 construct: purchased Sigma C3805
Description: Protease-free PPIase assay, cyclophilin A. It counts as biochemical. As for the experimental part:
(§1) The protease-free PPIase assay measures the rate of cis to trans conversion of a peptide substrate catalyzed by the enzymes cyclophilin A and cyclophilin D. Addition of a cyclophilin inhibitor (e.g., a test compound) slows the catalyzed rate and a Ki value is obtained. […] 35 mM HEPES pH 7.8, filtered through a 0.2 μm filter. 50 μM DTT was added prior to use each day and then the buffer was stored on ice. Human recombinant cyclophilin A (Cyp A) (Sigma C3805) enzyme was diluted to 1 μM with enzyme dilution buffer (20 mM HEPES pH 7.8, 40% glycerol, 50 μM DTT and 1 μM BSA) and stored at -20° C. Succinimide-[…]) (from Bachem AG, L-1400), 20 mg/ml prepared in 0.5 M LiCl in trifluoroethanol. All readings were taken with an Agilent 8453 Spectrophotometer which consists of a cuvette holder, stirrer and chiller to maintain a stirred cuvette temperature of 10.0±0.1° C. The temperature is monitored by the use of temperature probe. […] The inhibitor was diluted in 100% DMSO, and then added to the assay to a maximum final concentration of 0.5% DMSO in the assay. A blank spectrum was obtained, then 3 μL of enzyme was added (2 nM final concentration) and then 3 μL substrate (60 μM final concentration) added. The absorbance was measured at 330 nm for 300 s or 500 s for blank runs (NOTE: the substrate must be added in one quick injection and the measurements started immediately to minimize mixing errors). A first order rate equation was fitted to the absorbance data, for each concentration of inhibitor, to obtain the rate constant (the first 10 to 15 seconds were excluded as mixing causes errors in this portion of curve). The catalytic rate was calculated from the enzymatic rate constant minus the background rate constant. An exponential curve was generated using the catalytic rate constants versus the inhibitor concentration to obtain the Ki value for the inhibitor. The Ki value is indicative of the binding affinity between the test compound and cyclophilin A or cyclophilin D.

The target of another data set is cyclophilin D (Cyp D) (Homo sapiens, UniProt P30405). Description: Protease-free PPIase assay, cyclophilin D. It counts as biochemical. As for the experimental part: as §1, with “ice.” for “ice. Human recombinant cyclophilin A (Cyp A) (Sigma C3805) enzyme was diluted to 1 μM with enzyme dilution buffer (20 mM HEPES pH 7.8, 40% glycerol, 50 μM DTT and 1 μM BSA) and stored at -20° C.”

Data set [1] in a line: Water solubility assay (pH 7.8 buffer). The class given is physicochemical. On the procedure: ***Water Solubility Assay (Measured in pH 7.8 Buffer)
The onset of precipitation, if it occurred, was detected by an increase in absorbance at 650 nm.
Assay Buffer: 35 mM HEPES pH 7.8
Stock solutions of Control and Test Compounds: 10 mM in 100% DMSO
10 mM stock solutions of control and test compounds were prepared in 100% DMSO. A series of dilutions were prepared from the stock in DMSO so that the final concentrations in the assay were 0, 3.33, 10, 25, 50, 75 and 100 μM and DMSO was limited to 1%.
Assay buffer (247.5 μl) was placed into flat bottomed transparent 96-well plate. For blank samples DMSO (2.5 μl) was added. For test and control samples 2.5 μl of the appropriate DMSO dilution stocks were added to the appropriate well. All test and control compounds were performed in triplicate.
The plates were sealed with adhesive plate seal and shaken at 250 rpm at 25° C. for 18 h on a plate shaker.
After incubation the plate seals were taken off and any bubbles observed in wells removed. The plates were read on a SpectraMaxM5 with a 5 s pre-shake at 650 nm.
Data files were transferred to the appropriate worksheet and the solubility range of the compounds was calculated from the data.
The values shown in the tables indicate the concentration in μM (micromolar) at which the compound remains in solution.

Setting [2] is: protease-free PPIase assay, class symbols, read-out: CypA Ki.
[3] abbreviates: protease-free PPIase assay, class symbols, read-out: CypD Ki.
Where [4] appears, read: 35 mM HEPES buffer, 35 mM HEPES pH 7.8, 1% DMSO, 25° C., 18 h, concentration at which compound remains in solution, read-out: Solubility.

pKi: −log10 of the molar value. ≈ marks a conversion by molar mass, not a printed value. Like-named read-outs stand apart in the source and are kept apart here. Numbered stars: 1 amine (or outer) side, 2 acyl side, 3 side chain; on linkers, the order of the positions; unused ones are H or OH. Square brackets hold non-standard residues; d marks the D form. Peptide text beside a SMILES is read from it. X19 = C[C@H](CCN1CCCC(C(F)(F)F)C1)[C@@H](O)[C@H](C(=O)[*:2])N(C)[*:1]; X17 = C[C@H](CCN(C)CCc1ccccn1)[C@@H](O)[C@H](C(=O)[*:2])N(C)[*:1]; X9 = C[C@H](CC(=O)NCc1ccccc1)[C@@H](O)[C@H](C(=O)[*:2])N(C)[*:1]; X34 = C[C@H](CCN1CCN(C)CC1)[C@@H](O)[C@H](C(=O)[*:2])N(C)[*:1]; X15 = C[C@H](CCN1CCCCC1CO)[C@@H](O)[C@H](C(=O)[*:2])N(C)[*:1]; X11 = C[C@H](CCN(C)CCC#N)[C@@H](O)[C@H](C(=O)[*:2])N(C)[*:1]; X25 = CC(C)NCC[C@@H](C)[C@@H](O)[C@H](C(=O)[*:2])N(C)[*:1]; d(aThr) = C[C@@H](O)[C@@H](N)C(=O)O; NMeL = CN[C@@H](CC(C)C)C(=O)O; dNMeL = CN[C@H](CC(C)C)C(=O)O; dNMeV = CN[C@@H](C(=O)O)C(C)C; Hiv = CC(C)[C@H](O)C(=O)O; Sar = CNCC(=O)O Where only a bound is given, the exact number is not on record here.

Usually pKi stands for the Ki on a negative log10 scale, so that one unit is a factor of ten. As usually defined, the solubility is the concentration that dissolves in the medium under given conditions.

T1 sequence (P62937 whole entry): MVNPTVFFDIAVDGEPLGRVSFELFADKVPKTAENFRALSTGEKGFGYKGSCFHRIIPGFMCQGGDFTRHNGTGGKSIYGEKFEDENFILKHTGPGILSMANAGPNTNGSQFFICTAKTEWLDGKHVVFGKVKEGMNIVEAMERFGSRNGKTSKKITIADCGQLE
cyclophilin D (Cyp D), sequence (P30405 30-207): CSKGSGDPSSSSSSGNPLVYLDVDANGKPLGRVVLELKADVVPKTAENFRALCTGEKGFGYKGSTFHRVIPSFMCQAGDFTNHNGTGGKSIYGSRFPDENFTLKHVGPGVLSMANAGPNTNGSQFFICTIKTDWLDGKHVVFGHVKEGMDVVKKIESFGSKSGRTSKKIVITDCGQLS

`CC(C)C[C@@H]1C(=O)N[C@H](CC(C)C)C(=O)N(C)[C@H](C(C)C)C(=O)N(C)[C@H]([C@H](O)[C@H](C)CCN2CCCC(C(F)(F)F)C2)C(=O)N[C@H]([C@@H](C)O)C(=O)N(C)CC(=O)N(C)[C@@H](CC(C)C)C(=O)N[C@H](CC(C)C)C(=O)N(C)[C@H](CC(C)C)C(=O)N[C@H](C)C(=O)O[C@@H](C(C)C)C(=O)N1C` (stereo partly drawn) [Example 9, cyclo-{(3R,4R,5S)-4-(hydroxy)-3-methyl-5-(methylamino)-1-N-[3-trifluoromethyl-piperidinyl]-hexanoic acid-Thr-Sar-MeLeu-Leu-MeLeu-Ala-D-Hiv-MeLeu-Leu-MeVal}] (cyclo([Hiv][dNMeL][dL][dNMeV][X19][d(aThr)][Sar][NMeL][dL][dNMeL][dA])): the negative-log Ki (pKi) on cyclophilin A (Cyp A) (setting [2]) and at cyclophilin D (Cyp D) (setting [3]) was 7.60 to 9.00 each time. Further, the solubility at 18 h in data set [1] (setting [4]) was in the range of 10 to 25 µM (≈ 13.7 to 34.3 µg/mL).
Consider `CC(C)C[C@@H]1C(=O)N[C@H](CC(C)C)C(=O)N(C)[C@H](C(C)C)C(=O)N(C)[C@H]([C@H](O)[C@H](C)CC(=O)NCc2ccccc2)C(=O)N[C@H]([C@@H](C)O)C(=O)N(C)CC(=O)N(C)[C@@H](CC(C)C)C(=O)N[C@H](CC(C)C)C(=O)N(C)[C@H](CC(C)C)C(=O)N[C@H](C)C(=O)O[C@@H](C(C)C)C(=O)N1C` [Example 36, cyclo-[(3R,4R,5S)-1-benzylcarbamoyl-3-methyl-5-methylamino-4-hydroxy-pentanoic acid-Thr-Sar-MeLeu-Leu-MeLeu-Ala-D-Hiv-MeLeu-Leu-MeVal]] (cyclo([Hiv][dNMeL][dL][dNMeV][X9][d(aThr)][Sar][NMeL][dL][dNMeL][dA])), for which the pKi on cyclophilin A (Cyp A) and at cyclophilin D (Cyp D) was 7.60 to 9.00 each time. The solubility at 18 h in data set [1] (pH 7.8) was 25 to 50 µM (≈ 33.5 to 67 µg/mL).
Consider `CC(C)C[C@@H]1C(=O)N[C@H](CC(C)C)C(=O)N(C)[C@H](C(C)C)C(=O)N(C)[C@H]([C@H](O)[C@H](C)CCN2CCCCC2CO)C(=O)N[C@H]([C@@H](C)O)C(=O)N(C)CC(=O)N(C)[C@@H](CC(C)C)C(=O)N[C@H](CC(C)C)C(=O)N(C)[C@H](CC(C)C)C(=O)N[C@H](C)C(=O)O[C@@H](C(C)C)C(=O)N1C` (stereo partly drawn) [Example 39, cyclo-[(2R,3R,4S)-4-hydroxy-1-(2-hydroxymethyl-piperidin-1-yl)-3-methyl-5-methylamino-hexanoic acid-Thr-Sar-MeLeu-Leu-MeLeu-Ala-D-Hiv-MeLeu-Leu-MeVal]] (cyclo([Hiv][dNMeL][dL][dNMeV][X15][d(aThr)][Sar][NMeL][dL][dNMeL][dA])), for which the pKi on cyclophilin A (Cyp A) was 6.52 to 7.00; at cyclophilin D (Cyp D) it was 7.00 to 7.60. Besides, the solubility at 18 h in data set [1] (pH 7.8) is above 100 µM.
Taken in the same sequence, the figures for `CC(C)C[C@@H]1C(=O)N[C@H](CC(C)C)C(=O)N(C)[C@H](C(C)C)C(=O)N(C)[C@H]([C@H](O)[C@H](C)CCN(C)CCC#N)C(=O)N[C@H]([C@@H](C)O)C(=O)N(C)CC(=O)N(C)[C@@H](CC(C)C)C(=O)N[C@H](CC(C)C)C(=O)N(C)[C@H](CC(C)C)C(=O)N[C@H](C)C(=O)O[C@@H](C(C)C)C(=O)N1C` [Example 27, cyclo-[(3R,4R,5S)-4-(hydroxy)-3-methyl-5-(methylamino)-1-N-(3-methylamino-propionitrile)-hexanoic acid-Thr-Sar-MeLeu-Leu-MeLeu-Ala-D-Hiv-MeLeu-Leu-MeVal]] (cyclo([Hiv][dNMeL][dL][dNMeV][X11][d(aThr)][Sar][NMeL][dL][dNMeL][dA])) were 7.00 to 7.60, 7.60 to 9.00 and above 100 µM.
Take `CC(C)C[C@@H]1C(=O)N[C@H](CC(C)C)C(=O)N(C)[C@H](C(C)C)C(=O)N(C)[C@H]([C@H](O)[C@H](C)CCN(C)CCc2ccccn2)C(=O)N[C@H]([C@@H](C)O)C(=O)N(C)CC(=O)N(C)[C@@H](CC(C)C)C(=O)N[C@H](CC(C)C)C(=O)N(C)[C@H](CC(C)C)C(=O)N[C@H](C)C(=O)O[C@@H](C(C)C)C(=O)N1C` [Example 4, cyclo-{(3R,4R,5S)-4-(hydroxy)-3-methyl-5-(methylamino)-1-N-[methyl-2-(pyridin-2-yl)-ethyl-amino]-hexanoic acid-Thr-Sar-MeLeu-Leu-MeLeu-Ala-D-Hiv-MeLeu-Leu-MeVal}] (cyclo([Hiv][dNMeL][dL][dNMeV][X17][d(aThr)][Sar][NMeL][dL][dNMeL][dA])): the pKi at cyclophilin A (Cyp A) (setting [2]) and at cyclophilin D (Cyp D) (setting [3]) was 7.60 to 9.00 in each case. The solubility at 18 h in data set [1] (setting [4]) was 25 to 50 µM (≈ 33.9 to 67.8 µg/mL).
Consider `CC(C)C[C@@H]1C(=O)N[C@H](CC(C)C)C(=O)N(C)[C@H](C(C)C)C(=O)N(C)[C@H]([C@H](O)[C@H](C)CCNC(C)C)C(=O)N[C@H]([C@@H](C)O)C(=O)N(C)CC(=O)N(C)[C@@H](CC(C)C)C(=O)N[C@H](CC(C)C)C(=O)N(C)[C@H](CC(C)C)C(=O)N[C@H](C)C(=O)O[C@@H](C(C)C)C(=O)N1C` [Example 37, cyclo-[(3R,4R,5S)-4-hydroxy-1-isopropylamino-3-methyl-5-methylamino-hexanoic acid-Thr-Sar-MeLeu-Leu-MeLeu-Ala-D-Hiv-MeLeu-Leu-MeVal]] (cyclo([Hiv][dNMeL][dL][dNMeV][X25][d(aThr)][Sar][NMeL][dL][dNMeL][dA])), for which the negative-log Ki (pKi) on cyclophilin A (Cyp A) was 7.00 to 7.60; at cyclophilin D (Cyp D) it was 7.60 to 9.00. Further, the solubility at 18 h in data set [1] (pH 7.8) was above 100 µM.
Taken in the same sequence, the figures for `CO[C@H](C)[C@H]1NC(=O)[C@@H]([C@H](O)[C@H](C)CCN2CCOCC2)N(C)C(=O)[C@@H](C(C)C)N(C)C(=O)[C@@H](CC(C)C)NC(=O)[C@@H](CC(C)C)N(C)C(=O)[C@H](C(C)C)OC(=O)[C@@H](C)NC(=O)[C@@H](CC(C)C)N(C)C(=O)[C@@H](CC(C)C)NC(=O)[C@H](CC(C)C)N(C)C(=O)CN(C)C1=O` (stereo in doubt) [Example 7, cyclo-[(3R,4R,5S)-4-(hydroxy)-3-methyl-5-(methylamino)-1-N-morpholino-hexanoic acid-(O-methyl-Thr)-Sar-MeLeu-Leu-MeLeu-Ala-D-Hiv-MeLeu-Leu-MeVal]] were 7.00 to 7.60, 7.60 to 9.00 and 50 to 75 µM (≈ 66 to 99.1 µg/mL).
Regarding `CC(C)C[C@@H]1C(=O)N[C@H](CC(C)C)C(=O)N(C)[C@H](C(C)C)C(=O)N(C)[C@H]([C@H](O)[C@H](C)CCN2CCN(C)CC2)C(=O)N[C@H]([C@@H](C)O)C(=O)N(C)CC(=O)N(C)[C@@H](CC(C)C)C(=O)N[C@H](CC(C)C)C(=O)N(C)[C@H](CC(C)C)C(=O)N[C@H](C)C(=O)O[C@@H](C(C)C)C(=O)N1C` [Example 32, cyclo-[(3R,4R,5S)-4-(hydroxy)-3-methyl-5-(methylamino)-1-N—(N′-methylpiperazine)-hexanoic acid-Thr-Sar-MeLeu-Leu-MeLeu-Ala-D-Hiv-MeLeu-Leu-MeVal]] (cyclo([Hiv][dNMeL][dL][dNMeV][X34][d(aThr)][Sar][NMeL][dL][dNMeL][dA])), the pKi on cyclophilin A (Cyp A) is 6.52 to 7.00; at cyclophilin D (Cyp D), 7.00 to 7.60.
